Measurements taken from EP4733301A1 (priority 2023, dated 2025).
Several values for one entry are separate records, joined by “and”; a condition that tells them apart may be missing. Equal values may be shown once. Non-standard residues stand in square brackets, D forms with d. Residues, ends and D or L forms follow the SMILES beside them. *: point of attachment. Dolaproine = CO[C@@H]([C@@H]1CCCN1)[C@@H](C)C(=O)O; Dil = CC[C@H](C)[C@H](NC)[C@@H](CC(=O)O)OC; X1 = C[C@@H](N*)[C@@H](O)c1ccccc1; NMeV = CN[C@H](C(=O)O)C(C)C

Tested on: 4T1-FAP cells
Assay: CCK-8 cell viability assay (cytotoxicity of MMAE and NAPC-ADC)
Format: cell-based, Mouse
Conditions: 72 hour incubation
Procedure: Cell viability was assessed using CCK-8 assay. Each experiment was performed in triplicate. To detect cytotoxicity of MMAE and NAPC-ADC, 4T1-FAP cells were seeded at 5×10^4 /mL in 96-well plates in 200 µL rmi-1640 medium containing 10% FBS and 1% penicillin/streptomycin, incubated at 37 °C in a 5% CO2 incubator for 24 hours, then incubated with different concentrations of MMAE and NAPC-ADC for 72 hour, and blank medium containing CCK-8 at a final concentration of 0.5 mg/mL was added. Incubated at 37 °C, 5% CO2 for 2 hours, absorbance was measured at 450 nm. The absorbance of treated cells was compared to that of the control group, whose viability was set at 100%.

SMILES: CC[C@H](C)[C@@H]([C@@H](CC(=O)N1CCC[C@H]1[C@H](OC)[C@@H](C)C(=O)N[C@H](C)[C@@H](O)c1ccccc1)OC)N(C)C(=O)[C@@H](NC(=O)[C@@H](NC)C(C)C)C(C)C [MMAE] (H-[NMeV]V[Dil][Dolaproine]-X1)
- IC50: < 1.69 nM and 1.69 nM
